Measured values taken from patent US20060003028A1, “Stable oxidizing bromine composition, method of manufacture and use thereof for biofouling control” (priority 2004, published 2006).

Assays:
[1] = system: mixed cooling water bacterial culture; assay: Control experiments: bromide addition alone in phosphate buffer, plate counts; format: cell-based
Protocol: In order to make certain that the observed biocidal performance enhancement is not caused by the bromide addition alone, a set of control experiments are conducted. […] The differences among all the plate count results are well within the detection limit. Therefore, the performance improvement seen in Examples 1-3 is not caused by the increased concentration of sodium bromide alone.

[2] = in water; cited from earlier work

[Br-].[Na+] [NaBr, sodium bromide]
Biocidal effect of bromide addition alone ([1]; 50-150 ppm NaBr in phosphate buffer): not biocidal | Bacterial counts ([1]; 50 ppm NaBr, 0 minutes): 7.3 × 10^5 CFU/ml | Bacterial counts ([1]; 50 ppm NaBr, 5 minutes): 9.3 × 10^5 CFU/ml | Bacterial counts ([1]; 50 ppm NaBr, 10 minutes): 7.0 × 10^5 CFU/ml | Bacterial counts ([1]; 50 ppm NaBr, 60 minutes): 8.0 × 10^5 CFU/ml | Bacterial counts ([1]; 100 ppm NaBr, 0 minutes): 7.3 × 10^5 CFU/ml | Bacterial counts ([1]; 100 ppm NaBr, 5 minutes): 11.0 × 10^5 CFU/ml | Bacterial counts ([1]; 100 ppm NaBr, 10 minutes): 8.2 × 10^5 CFU/ml | Bacterial counts ([1]; 100 ppm NaBr, 60 minutes): 5.4 × 10^5 CFU/ml | Bacterial counts ([1]; 150 ppm NaBr, 0 minutes): 7.3 × 10^5 CFU/ml | Bacterial counts ([1]; 150 ppm NaBr, 5 minutes): 8.4 × 10^5 CFU/ml | Bacterial counts ([1]; 150 ppm NaBr, 10 minutes): 5.2 × 10^5 CFU/ml | Bacterial counts ([1]; 150 ppm NaBr, 60 minutes): 8.3 × 10^5 CFU/ml

BrBr [elemental liquid bromine, bromine]
solubility [2]: < 4 g/100 g water
